# Experimental data reported in US11364248B2 (AMGEN INC., priority 2017, dated 2022).
# Read-outs that look alike come from different tables or passages of the source.
# Key:
# [1] = test system: OPM-2; test: Cell Viability Assay (OPM-2 10 FBS); type: cell-based, human; settings: OPM-2 cells, CellTiter-Glo, read-out: OPM-2 10% FBS IC50 IP
# In short: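 Compounds, serially diluted, were left on OPM-2 cells (3000 cells/well, 10% FBS RPMI 1640) for 16 h at 37° C. under 5% CO2.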
# [2] = target: Mcl-1/Bim interaction (Homo sapiens (Human), UniProt Q07820); test: Cell Free Mcl-1: Bim Affinity Assay (Mcl-1 HTRF); type: binding; settings: TR-FRET, recombinant human Mcl-1(171-327), biotin-Bim(51-76); read-out: Mel-1 HTRF IC50
# Chain of Mcl-1/Bim interaction (Q07820 171-327): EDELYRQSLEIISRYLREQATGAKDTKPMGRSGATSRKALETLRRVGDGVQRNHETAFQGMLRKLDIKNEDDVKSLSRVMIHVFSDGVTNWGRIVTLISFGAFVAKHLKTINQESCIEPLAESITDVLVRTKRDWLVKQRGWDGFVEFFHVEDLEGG
# Description: Cell Free Mcl-1: Bim Affinity Assay (Mcl-1 HTRF)
# The inhibition of the Mcl-1/Bim interaction was measured using a time-resolved fluorescence resonance energy transfer (TR-FRET) assay. The recombinant human Mcl-1 (C-terminally 6×His tagged Mcl-1 containing residues 171-327) was generated at Amgen Inc (Thousand Oaks, Calif.). A biotinylated peptide derived from human Bim (residues 51-76) was purchased from CPC Scientific (San Jose, Calif.). The TR-FRET assay was conducted in a 384-well white OptiPlate™ (PerkinElmer, Waltham, Mass.) in a total volume of 40 μL. The reaction mixture contained 0.1 nM Mcl-1(171-327), 0.05 nM biotin-Bim(51-76), 0.05 nM LANCER Eu-W1024 Anti-6×His (PerkinElmer), 0.072 nM Streptavidin-Xlent (Cisbio, Bedford, Mass.), and serially diluted test compounds in the binding buffer of 20 mM Hepes, pH 7.5, 150 mM NaCl, 0.016 mM Brij©35, and 1 mM dithiothreitol. Test compounds were pre-incubated with Mcl-1(171-327) and biotin-Bim (51-76) for 60 min before addition of the detection mixture (LANCE Eu-W1024 Anti-6×His and Streptavidin-Xlent). The reaction plates were further incubated overnight and then were read on an Envision® multimode reader (PerkinElmer). Fluorescence signals were measured at 620 nm (40-nm bandwidth) and 665 nm (7.5-nm bandwidth) with a 60 μs delay after excitation at 320 nm (75-nm bandwidth). The signal ratio at 665/620 nm corresponded to the Mcl-1/Bim interaction and was used in all data analyses. The IC50 values of test compounds were determined from duplicate data by analyzing competition curves using a four-parameter sigmoidal model in GraphPad Prism (GraphPad Software, San Diego, Calif.) or in Genedata Screener® (Genedata, Basel, Switzerland).
Compound,IC50 ([1]; 16 h) [nM],IC50 [2] [nM],"IC50 ([1]; Homo sapiens, OPM-2, 16 h) [nM]"
"C[C@@H]1[C@@H](C)CCC[C@H]([C@H]2O[C@H]3CNC[C@H]3O2)[C@@H]2CC[C@H]2CN2C[C@@]3(CCCc4cc(Cl)ccc43)COc3ccc(cc32)C(=O)NS1(=O)=O (stereo in doubt) [Example 15, (1S,3′R,6′R,7′R,11′S,12′R)-6-chloro-11′,12′-dimethyl-7′-((2r,3aR,6aS)-tetrahydro-3aH-[1,3]dioxolo[4,5-c]pyrrol-2-yl)-3,4-dihydro-2H,15′H-spiro[naphthalene-1,22′-[20]oxa[13]thia[1,14]diazatetracyclo [14.7.2.0~3,6~.0~19,24~]pentacosa[16,18,24]trien]-15′-one 13′,13′-dioxide]",625,0.765,
"CC(=O)N1C[C@@H]2O[C@H]([C@H]3CCC[C@H](C)[C@@H](C)S(=O)(=O)NC(=O)c4ccc5c(c4)N(C[C@@H]4CC[C@H]43)C[C@@]3(CCCc4cc(Cl)ccc43)CO5)O[C@@H]2C1 (stereo in doubt) [Example 16, (1S,3′R,6′R,7′R,11′S,12′R)-7′-((2r,3aR,6aS)-5-acetyltetrahydro-3aH-[1,3]dioxolo[4,5-c]pyrrol-2-yl)-6-chloro-11′,12′-dimethyl-3,4-dihydro-2H,15′H-spiro[naphthalene-1,22′-[20]oxa[13]thia[1,14]diazatetracyclo [14.7.2.0~3,6~.0~19,24~]pentacosa[16,18,24]trien]-15′-one 13′,13′-dioxide]",,0.194,262
"C[C@@H]1[C@@H](C)CCC[C@H]([C@H]2O[C@H]3CN(C)C[C@H]3O2)[C@@H]2CC[C@H]2CN2C[C@@]3(CCCc4cc(Cl)ccc43)COc3ccc(cc32)C(=O)NS1(=O)=O (stereo in doubt) [Example 24, (1S,3′R,6′R,7′R,11′S,12′R)-6-chloro-11′,12′-dimethyl-7′-((2r,3aR,6aS)-5-methyltetrahydro-3aH-[1,3]dioxolo[4,5-c]pyrrol-2-yl)-3,4-dihydro-2H,15′H-spiro[naphthalene-1,22′-[20]oxa[13]thia[1,14]diazatetracyclo [14.7.2.0~3,6~.0~19,24~]pentacosa[16,18,24]trien]-15′-one 13′,13′-dioxide]",,0.709,532
"C[C@@H]1[C@@H](C)CCC[C@H]([C@H]2O[C@H]3CNC[C@H]3O2)[C@@H]2CC[C@H]2CN2C[C@@]3(CCCc4cc(Cl)ccc43)COc3ccc(cc32)C(=O)NS1(=O)=O (stereo in doubt) [Example 35, (1S,3′R,6′R,7′R,11′S,12′R)-6-chloro-11′,12′-dimethyl-7′-((2r,3aR,6aS)-tetrahydro-3aH-[1,3]dioxolo[4,5-c]pyrrol-2-yl)-3,4-dihydro-2H,15′H-spiro[naphthalene-1,22′-[20]oxa[13]thia[1,14]diazatetracyclo [14.7.2.0~3,6~.0~19,24~]pentacosa[16,18,24]trien]-15′-one 13′,13′-dioxide]",304,0.829,
"CC[C@@H]1CCCC[C@H]([C@H]2OC[C@@H](N(C)C)CO2)C2CC[C@H]2CN2C[C@@]3(CCCc4cc(Cl)ccc43)COc3ccc(cc32)C(=O)NS1(=O)=O (stereo in doubt) [Example 73, (1S,3′R,6′S,7′S,12′R)-6-chloro-7′-(cis-5-(dimethylamino)-1,3-dioxan-2-yl)-12′-ethyl-3,4-dihydro-2H,15′H-spiro[naphthalene-1,22′-[20]oxa[13]thia[1,14]diazatetracyclo [14.7.2.0~3,6~.0~19,24~]pentacosa[16,18,24]trien]-15′-one 13′,13′-dioxide]",915,0.657,
"CC[C@@H]1CCCC[C@H]([C@H]2OC[C@@H](N(C)C)CO2)C2CC[C@H]2CN2C[C@@]3(CCCc4cc(Cl)ccc43)COc3ccc(cc32)C(=O)NS1(=O)=O (stereo in doubt) [Example 74, (1S,3′R,6′S,7′S,12′R)-6-chloro-7′-(cis-5-(dimethylamino)-1,3-dioxan-2-yl)-12′-ethyl-3,4-dihydro-2H,15′H-spiro[naphthalene-1,22′-[20]oxa[13]thia[1,14]diazatetracyclo [14.7.2.0~3,6~.0~19,24~]pentacosa[16,18,24]trien]-15′-one 13′,13′-dioxide]",108,0.196,
C[C@H]1CCC[C@H]([C@H]2OC[C@@H](N(C)C)CO2)[C@@H]2CC[C@H]2CN2C[C@@]3(CCCc4cc(Cl)ccc43)COc3ccc(cc32)C(=O)NS(=O)(=O)C1 (stereo in doubt) [Example 77],,2.65,595
C[C@H]1CCC[C@H]([C@H]2OC[C@@H](N(C)C)CO2)[C@@H]2CC[C@H]2CN2C[C@@]3(CCCc4cc(Cl)ccc43)COc3ccc(cc32)C(=O)NS(=O)(=O)C1 (stereo in doubt) [Example 78],599,2.81,
"C[C@@H]1[C@@H](C)CCC[C@H](C2OCCO2)[C@@H]2CC[C@H]2CN2C[C@@]3(CCCc4cc(Cl)ccc43)COc3ccc(cc32)C(=O)NS1(=O)=O [Example 3, (1S,3′R,6′R,7′S,11′S,12′R)-6-chloro-7′-(1,3-dioxolan-2-yl)-11′,12′-dimethyl-3,4-dihydro-2H,15′H-spiro[naphthalene-1,22′-[20]oxa[13]thia[1,14]diazatetracyclo [14.7.2.0~3,6~.0~19,24~]pentacosa[16,18,24]trien]-15′-one 13′,13′-dioxide]",926,1.28,
"C[C@@H]1[C@@H](C)CCC[C@H](C2OCCO2)[C@@H]2CC[C@H]2CN2C[C@@]3(CCCc4cc(Cl)ccc43)COc3ccc(cc32)C(=O)NS1(=O)=O [Example 4, (1S,3′R,6′R,7′S,11′S,12′R)-6-chloro-7′-(1,3-dioxolan-2-yl)-11′,12′-dimethyl-3,4-dihydro-2H,15′H-spiro[naphthalene-1,22′-[20]oxa[13]thia[1,14]diazatetracyclo [14.7.2.0~3,6~.0~19,24~]pentacosa[16,18,24]trien]-15′-one 13′,13′-dioxide]",2150,1.92,
"C[C@@H]1[C@@H](C)CCC[C@H](C2OCCCO2)[C@@H]2CC[C@H]2CN2C[C@@]3(CCCc4cc(Cl)ccc43)COc3ccc(cc32)C(=O)NS1(=O)=O [Example 7, (1S,3′R,6′R,7′S,11′S,12′R)-6-chloro-7′-(1,3-dioxan-2-yl)-11′,12′-dimethyl-3,4-dihydro-2H,15′H-spiro[naphthalene-1,22′-[20]oxa[13]thia[1,14]diazatetracyclo [14.7.2.0~3,6~.0~19,24~]pentacosa[16,18,24]trien]-15′-one 13′,13′-dioxide]",1070,0.949,
"C[C@@H]1[C@@H](C)CCC[C@H](C2OCCCO2)[C@@H]2CC[C@H]2CN2C[C@@]3(CCCc4cc(Cl)ccc43)COc3ccc(cc32)C(=O)NS1(=O)=O [Example 8, (1S,3′R,6′R,7′S,11′S,12′R)-6-chloro-7′-(1,3-dioxan-2-yl)-11′,12′-dimethyl-3,4-dihydro-2H,15′H-spiro[naphthalene-1,22′-[20]oxa[13]thia[1,14]diazatetracyclo [14.7.2.0~3,6~.0~19,24~]pentacosa[16,18,24]trien]-15′-one 13′,13′-dioxide]",7360,1.67,
"C[C@@H]1[C@@H](C)CCC[C@H]([C@H]2OC[C@H](O)CO2)[C@@H]2CC[C@H]2CN2C[C@@]3(CCCc4cc(Cl)ccc43)COc3ccc(cc32)C(=O)NS1(=O)=O [Example 11, (1S,3′R,6′R,7′S,11′S,12′R)-6-chloro-7′-(trans-5-hydroxy-1,3-dioxan-2-yl)-11′,12′-dimethyl-3,4-dihydro-2H,15′H-spiro[naphthalene-1,22′-[20]oxa[13]thia[1,14]diazatetracyclo [14.7.2.0~3,6~.0~19,24~]pentacosa[16,18,24]trien]-15′-one 13′,13′-dioxide]",260,0.29,
"C[C@@H]1[C@@H](C)CCC[C@H]([C@H]2OC[C@H](O)CO2)[C@@H]2CC[C@H]2CN2C[C@@]3(CCCc4cc(Cl)ccc43)COc3ccc(cc32)C(=O)NS1(=O)=O [Example 12, (1S,3′R,6′R,7′S,11′S,12′R)-6-chloro-7′-(trans-5-hydroxy-1,3-dioxan-2-yl)-11′,12′-dimethyl-3,4-dihydro-2H,15′H-spiro[naphthalene-1,22′-[20]oxa[13]thia[1,14]diazatetracyclo [14.7.2.0~3,6~.0~19,24~]pentacosa[16,18,24]trien]-15′-one 13′,13′-dioxide]",668,0.382,
